Measurements as given in ChEMBL document CHEMBL1201862, “PubChem BioAssay data set” (2004).
The source made the active and inactive calls.

Tests used:
Paired box protein Pax-8 = Paired box protein Pax-8 (Homo sapiens, UniProt Q06710); assay: PAX8 transcriptional activity inhibition in RMG-I – RMG-I cells, luciferase, cherry-pick, dose response (AID 687027); type: functional, cell-based;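 also: luciferase reporter driven by Pax8 target thyroperoxidase promoter measured by SteadyGlo luminescence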
cells [1] = type: functional, cell-based
cells [2] = type: functional, cell-based; remark: listed apart in the source
[3] = Luminescence Cell-Based Dose Retest to Confirm Inhibitors of Cancer Stem Cells. [Related pubchem assays (depositor defined):AID2717, AID2721]; type: functional; settings: Homo sapiens
INS1 = assay: INS-1E survival protection against cytokine death – cell-based, luminescence, retest, dose response (AID 449756); type: functional; settings: Rattus norvegicus;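 also: cell death triggered by IL-1 beta plus TNF-alpha plus IFN-gamma mixture; protective hits raise ATP signal compared with cytokine alone wells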
[4] = microbe, parasite or virus in culture; type: functional; settings: Mycobacterium tuberculosis
[5] = molecular target: T1, Rac GTPase-activating protein 1 (Homo sapiens, UniProt Q9H0H5); assay: blockers of MgcRacGAP-driven Rac1 GTP hydrolysis – biochemical, ADP Hunter fluorescence, primary and confirmatory, confirmation (AID 624330); type: functional
T1 sequence (Q9H0H5 whole entry): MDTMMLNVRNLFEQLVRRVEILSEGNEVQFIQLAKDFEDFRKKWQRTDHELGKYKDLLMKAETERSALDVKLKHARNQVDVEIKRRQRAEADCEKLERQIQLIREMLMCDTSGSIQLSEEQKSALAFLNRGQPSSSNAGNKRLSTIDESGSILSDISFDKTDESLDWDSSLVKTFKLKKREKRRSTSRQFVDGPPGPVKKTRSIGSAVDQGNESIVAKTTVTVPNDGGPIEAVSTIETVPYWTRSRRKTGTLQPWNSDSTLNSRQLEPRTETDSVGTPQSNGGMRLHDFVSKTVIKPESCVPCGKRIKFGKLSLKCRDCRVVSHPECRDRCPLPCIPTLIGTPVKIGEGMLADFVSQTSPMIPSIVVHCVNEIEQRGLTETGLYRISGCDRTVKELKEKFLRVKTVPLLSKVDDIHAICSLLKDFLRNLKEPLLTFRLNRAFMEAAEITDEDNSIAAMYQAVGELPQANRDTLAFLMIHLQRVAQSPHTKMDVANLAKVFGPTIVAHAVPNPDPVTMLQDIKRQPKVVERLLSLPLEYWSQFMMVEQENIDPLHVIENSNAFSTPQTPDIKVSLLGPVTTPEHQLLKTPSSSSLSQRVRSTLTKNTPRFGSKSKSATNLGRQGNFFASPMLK

[6] = molecular target: T2, RNA-binding protein pos-1 (Caenorhabditis elegans, UniProt G5EF15); assay: disruptors of C. elegans POS-1 RNA interaction – biochemical, fluorescence polarization, dose response (AID 1964);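 also: purified POS-1 fused to maltose binding protein made in E. coli; potency of compounds blocking POS-1 binding to fluorescent RNA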
T2 sequence (G5EF15 whole entry): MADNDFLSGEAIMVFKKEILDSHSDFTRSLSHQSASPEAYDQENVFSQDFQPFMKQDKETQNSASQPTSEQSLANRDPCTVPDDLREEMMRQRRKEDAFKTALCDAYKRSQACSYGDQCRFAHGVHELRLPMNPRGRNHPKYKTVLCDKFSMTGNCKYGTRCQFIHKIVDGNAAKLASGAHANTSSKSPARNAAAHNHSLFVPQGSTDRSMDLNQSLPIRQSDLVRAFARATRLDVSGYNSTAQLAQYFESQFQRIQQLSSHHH

[7] = molecular target: T3, Zinc finger protein mex-5 (Caenorhabditis elegans, UniProt Q9XUB2); assay: potency of MEX-5 RNA-binding blockers – biochemical, C. elegans, fluorescence polarization, dose response (AID 1960)
T3 sequence (Q9XUB2 whole entry): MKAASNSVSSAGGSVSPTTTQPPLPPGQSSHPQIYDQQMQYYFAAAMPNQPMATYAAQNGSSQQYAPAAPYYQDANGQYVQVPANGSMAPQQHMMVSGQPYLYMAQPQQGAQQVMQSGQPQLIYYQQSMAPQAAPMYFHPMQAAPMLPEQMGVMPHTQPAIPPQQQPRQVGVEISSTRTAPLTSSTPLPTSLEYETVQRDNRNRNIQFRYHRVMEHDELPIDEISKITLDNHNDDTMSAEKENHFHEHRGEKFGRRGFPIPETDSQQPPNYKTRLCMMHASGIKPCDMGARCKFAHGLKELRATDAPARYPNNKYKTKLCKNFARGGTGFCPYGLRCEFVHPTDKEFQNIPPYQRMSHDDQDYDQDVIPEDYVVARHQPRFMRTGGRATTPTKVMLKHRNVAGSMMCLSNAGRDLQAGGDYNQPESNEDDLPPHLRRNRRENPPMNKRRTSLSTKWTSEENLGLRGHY

[8] = molecular target: T4, Heat shock factor protein 1 (Mus musculus, UniProt P38532); assay: decrease of HSF1-responsive luciferase luminescence – cell-based, NIH3T3, dose retest, confirmation (AID 2382); type: functional;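 also: NIH3T3 fibroblasts with HSF1-driven luciferase reporter stressed by proteasome inhibitor MG132; luminescence from HSF1-driven luciferase expression after 8 hours of MG132 stress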
T4 sequence (P38532 whole entry): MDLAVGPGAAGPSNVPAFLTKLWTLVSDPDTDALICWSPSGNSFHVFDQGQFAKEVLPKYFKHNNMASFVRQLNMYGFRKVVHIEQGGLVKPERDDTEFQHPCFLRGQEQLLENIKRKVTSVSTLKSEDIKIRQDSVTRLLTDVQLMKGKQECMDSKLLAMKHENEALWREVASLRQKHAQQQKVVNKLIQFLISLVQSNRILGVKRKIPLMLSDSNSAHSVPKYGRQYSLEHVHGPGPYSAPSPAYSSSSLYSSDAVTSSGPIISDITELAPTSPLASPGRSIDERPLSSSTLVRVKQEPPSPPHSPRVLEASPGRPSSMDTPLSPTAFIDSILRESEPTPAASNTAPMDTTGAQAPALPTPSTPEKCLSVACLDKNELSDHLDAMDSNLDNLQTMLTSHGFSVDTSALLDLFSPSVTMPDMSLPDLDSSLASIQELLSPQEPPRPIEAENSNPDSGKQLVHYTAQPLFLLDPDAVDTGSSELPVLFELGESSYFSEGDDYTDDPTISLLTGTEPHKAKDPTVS

Cytochrome P450 2C19 = Cytochrome P450 2C19 (Homo sapiens, UniProt P33261); assay: Cytochrome panel assay with activity outcomes. Panel member name: p450-cyp2c19 Compounds with AC50 equal or less than 10 uM are considered active; type: functional; settings: read-out: AC50
Protein skinhead-1 = molecular target: T5, Protein skinhead-1 (Caenorhabditis elegans, UniProt P34707); type: functional
T5 sequence (P34707 whole entry): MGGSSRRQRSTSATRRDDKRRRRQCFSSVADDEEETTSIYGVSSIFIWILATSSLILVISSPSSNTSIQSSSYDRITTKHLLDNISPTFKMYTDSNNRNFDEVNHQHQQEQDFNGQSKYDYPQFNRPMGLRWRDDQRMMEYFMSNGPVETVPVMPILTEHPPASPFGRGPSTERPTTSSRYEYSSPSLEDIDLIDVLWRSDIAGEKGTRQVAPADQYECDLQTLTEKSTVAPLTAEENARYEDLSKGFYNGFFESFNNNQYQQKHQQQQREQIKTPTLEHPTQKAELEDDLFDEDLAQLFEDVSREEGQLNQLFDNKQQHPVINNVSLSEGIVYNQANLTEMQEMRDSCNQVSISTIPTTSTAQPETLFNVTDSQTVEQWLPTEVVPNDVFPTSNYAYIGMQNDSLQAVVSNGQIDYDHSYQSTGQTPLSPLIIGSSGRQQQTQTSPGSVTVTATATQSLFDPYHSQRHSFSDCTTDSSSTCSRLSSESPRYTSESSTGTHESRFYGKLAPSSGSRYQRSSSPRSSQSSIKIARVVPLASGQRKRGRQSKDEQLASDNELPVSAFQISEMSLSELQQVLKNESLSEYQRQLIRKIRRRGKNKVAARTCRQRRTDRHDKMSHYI

[9] = molecular target: FAD-linked sulfhydryl oxidase ALR (Homo sapiens, UniProt P55789); assay: ALR-catalysed DTT oxidation blockers – biochemical, H2O2 detection, luminescence, cherry-pick, dose response (AID 493248)
[10] = viability of HCT116 lacking mutant beta-catenin – cell-based, human colon tumor, dose response (AID 1045); type: functional;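 also: HCT116 colon tumor cells with beta catenin knocked out; cells exposed to compound for 60 hours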
[11] = viability of PTEN-deleted HCT116 cells – cell-based, HCT116 PTEN knockout, dose response (AID 1047); type: functional;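 also: HCT116 colon tumor cells with PTEN knocked out; cells exposed to compound for 60 hours before readout; potency for loss of cell viability measured by luminescence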

Chain of Paired box protein Pax-8 (Q06710 whole entry): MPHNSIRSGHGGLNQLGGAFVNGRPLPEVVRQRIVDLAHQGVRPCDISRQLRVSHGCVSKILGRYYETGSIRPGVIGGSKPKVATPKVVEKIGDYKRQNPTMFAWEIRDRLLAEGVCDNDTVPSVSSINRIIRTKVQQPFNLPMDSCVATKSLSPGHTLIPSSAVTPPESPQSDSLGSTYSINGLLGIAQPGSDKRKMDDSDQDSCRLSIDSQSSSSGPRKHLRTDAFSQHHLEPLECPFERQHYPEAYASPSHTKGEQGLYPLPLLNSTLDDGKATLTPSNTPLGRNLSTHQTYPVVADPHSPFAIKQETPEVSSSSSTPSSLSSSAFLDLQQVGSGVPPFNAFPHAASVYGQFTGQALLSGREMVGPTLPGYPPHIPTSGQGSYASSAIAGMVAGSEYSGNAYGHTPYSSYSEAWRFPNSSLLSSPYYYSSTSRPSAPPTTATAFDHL
Chain of Cytochrome P450 2C19 (P33261 whole entry): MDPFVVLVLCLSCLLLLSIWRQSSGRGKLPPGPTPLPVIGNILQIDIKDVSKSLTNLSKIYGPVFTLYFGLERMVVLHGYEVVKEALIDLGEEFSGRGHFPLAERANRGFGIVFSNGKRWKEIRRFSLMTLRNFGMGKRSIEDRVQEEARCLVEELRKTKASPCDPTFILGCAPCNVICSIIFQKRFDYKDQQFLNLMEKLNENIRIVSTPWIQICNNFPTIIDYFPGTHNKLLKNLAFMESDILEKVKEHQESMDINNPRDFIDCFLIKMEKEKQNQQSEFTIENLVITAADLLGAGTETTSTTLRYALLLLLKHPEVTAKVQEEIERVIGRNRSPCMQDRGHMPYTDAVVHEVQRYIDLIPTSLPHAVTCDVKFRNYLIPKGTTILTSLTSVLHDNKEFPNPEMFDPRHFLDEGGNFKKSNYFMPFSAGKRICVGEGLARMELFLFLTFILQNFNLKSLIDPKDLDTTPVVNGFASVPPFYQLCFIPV
Chain of FAD-linked sulfhydryl oxidase ALR (P55789 whole entry): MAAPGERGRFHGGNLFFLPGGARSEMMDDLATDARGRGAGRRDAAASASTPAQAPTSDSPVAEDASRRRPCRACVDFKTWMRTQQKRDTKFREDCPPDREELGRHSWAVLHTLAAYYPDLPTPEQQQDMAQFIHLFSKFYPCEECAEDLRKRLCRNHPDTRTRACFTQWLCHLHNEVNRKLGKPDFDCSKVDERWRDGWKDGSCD

Structure (SMILES): C[C@@H]1CN([C@@H](C)CO)C(=O)c2cc(NC(=O)Nc3ccc(C(F)(F)F)cc3)ccc2O[C@@H](C)CCCCO[C@@H]1CN(C)CC1CCCCC1
- AC50 (Paired box protein Pax-8): 3.9 µM (active)

Structure (SMILES): CS(=O)(=O)n1nc(-c2ccccc2)nc1NCc1ccco1
- EC50 (cells [1]): > 350 µM (not active)
- EC50 (cells [2]): > 350 µM (not active)

Structure (SMILES): CCOC(=O)C(/C=N/c1ccc(NC2=NCC(C)S2)cc1)=C(/O)OCC (stereo unspecified)
- EC50 (cells [1]): > 350 µM (not active)
- EC50 (cells [2]): > 350 µM (not active)

Structure (SMILES): CCN(CC)S(=O)(=O)c1ccc(N/N=C/c2cc(OC)ccc2O)nc1
- EC50 (cells [1]): 25.7 µM (active)
- EC50 (cells [2]): 302 µM (active)
- AC50 [3]: 4.47 µM (active)
- AC50 (INS1): 1.69 µM (active)

Structure (SMILES): Cc1oc(C)c2c(=O)ccc3c(c12)OC(N)=C(C#N)C3c1ccccc1Cl (stereo unspecified)
- CC50 [4]: > 40 µM (active)

Structure (SMILES): COCCNCCOCCOc1ccc(Cl)c(C)c1
- IC50 [5]: 138 µM (active)

Structure (SMILES): Nc1ccc(Nc2nc(-c3ccncc3)cs2)cc1
- IC50 [5]: 9.36 µM (active)

Structure (SMILES): Cc1nnc(S/C(=C/c2ccc(-c3cc(Cl)ccc3C)o2)C(=O)O)[nH]1
- EC50 [6]: 38.4 µM (active)
- EC50 [7]: 31 µM (active)

Structure (SMILES): COc1ccc(N2CCC(CN=C(S)Nc3cccc(C)c3)C2)cc1 (stereo unspecified)
- IC50 [5]: 39.3 µM (active)

Structure (SMILES): C[C@H](CO)N1C[C@H](C)[C@@H](CN(C)C(=O)NC2CCCCC2)Oc2cc(C#Cc3ccc(F)cc3)ccc2S1(=O)=O
- AC50 (Paired box protein Pax-8): 9.52 µM (active)

Structure (SMILES): CN(C)c1ccc(N=Nc2ccc(S(N)(=O)=O)cc2)cc1
- EC50 (cells [1]): 3.13 µM (active)
- EC50 (cells [2]): > 350 µM (not active)

Structure (SMILES): CC(=O)C[C@H]1c2cc(F)ccc2S(=O)(=O)N1c1ccc(N(C)C)cc1
- EC50 [8]: 33.8 µM (active)
- IC50 [5]: 119 µM (active)

Structure (SMILES): CCCCNC(=O)CN1C(=O)COc2ccc(S(=O)(=O)N3CCCCCC3)cc21
- EC50 (cells [1]): > 350 µM (not active)
- EC50 (cells [2]): > 350 µM (not active)

Structure (SMILES): COC(=O)C1CCN(C(=O)COC(=O)/C=C/c2ccc(O)c(OC)c2)CC1
- IC50 [5]: 49.7 µM (active)

Structure (SMILES): COc1ccc(CN2CCCN(C)CC2)c(OC)c1C
- IC50 [5]: 124 µM (active)

Structure (SMILES): CCOc1ccc(N(C(=O)/C=C/C(=O)Nc2cc(C)on2)C(C(=O)NC2CCCC2)c2ccccc2C)cc1 (stereo unspecified)
- CC50 [4]: 20.2 µM (active)
- AC50 (Cytochrome P450 2C19): 31.6 µM (inconclusive)

Structure (SMILES): CN1C(=S)SC(N(O)C(=O)Nc2ccc(Cl)c(Cl)c2)C1(C)C (stereo unspecified)
- CC50 [4]: 38.9 µM (active)

Structure (SMILES): O=C(NCc1ccccc1)C1Nc2ccc(OC(F)(F)F)cc2C2C=CCC12 (stereo unspecified)
- EC50 [6]: > 300 µM (not active)
- EC50 [7]: > 300 µM (not active)

Structure (SMILES): CCOC(=O)c1nn(-c2ccc(C)cc2)c2nc(Nc3ccccc3)cc(=O)n12
- EC50 [6]: 78.2 µM (active)
- EC50 [7]: > 300 µM (not active)

Structure (SMILES): CCc1cccc2c(C(=O)CCl)c[nH]c12
- CC50 [4]: 24.4 µM (active)

Structure (SMILES): Cc1ccccc1SCC(=O)OCC(=O)Nc1ccc(N(C)C)cc1
- IC50 [5]: 66.7 µM (active)

Structure (SMILES): O=C(CN1C(=O)c2ccccc2S1(=O)=O)c1ccc(O)c(O)c1
- IC50 [5]: 175 µM (active)

Structure (SMILES): CC/C(=C\c1ccc(N(C)C)cc1)c1ccncc1
- IC50 [5]: 30.2 µM (active)
- IC50 (Protein skinhead-1): > 100 µM (inactive)

Structure (SMILES): COC(=O)C1=C(C)N(c2ccccc2)/C(=C/c2ccco2)C1=O
- EC50 [6]: 99 µM (active)
- EC50 [7]: 5.06 µM (active)

Structure (SMILES): Cc1c(C(=O)O)cccc1-n1c(C)cc(/C=N/NC(=O)c2cc3ccccc3o2)c1C
- EC50 [6]: > 300 µM (not active)
- EC50 [7]: > 300 µM (not active)

Structure (SMILES): CC[C@H](C)[C@@H]1O[C@@]2(C=CC1C)CC1C[C@@H](CC=C(C)C(O[C@H]3CC(OC)C(O[C@H]4CC(OC)C(O)C(C)O4)C(C)O3)C(C)C=CC=C3CO[C@@H]4C(O)C(C)=C[C@@H](C(=O)O1)[C@]34O)O2 (stereo partly specified)
- CC50 [4]: 15.9 µM (active)

Structure (SMILES): O=C(CN1CCN(c2ccc(O)cc2)CC1)N(C1CC1)C1CCS(=O)(=O)C1 (stereo unspecified)
- AC50 [9]: 0.238 µM (active)
- IC50 [5]: 80.2 µM (active)

Structure (SMILES): CCC(C)c1ccc2oc(-c3ccc(NC(=O)Cn4cnc5c(=O)n(C)c(=O)n(C)c54)cc3)nc2c1 (stereo unspecified)
- EC50 (cells [1]): 43.7 µM (active)
- EC50 (cells [2]): > 350 µM (not active)
- EC50 [10]: 8.52 µM (active)
- EC50 [11]: 9.27 µM (active)

Structure (SMILES): CC1=CC(C)(C)N2C(=O)C3(C(C#N)=C(N)OC4=C3C(=O)CC(C)(C)C4)c3cccc1c32 (stereo unspecified)
- EC50 [6]: > 300 µM (not active)
- EC50 [7]: > 300 µM (not active)

Structure (SMILES): CN(C)c1ccc(N/C=C2/C(=O)NC(=O)N(CCC3=CCCCC3)C2=O)cc1
- EC50 [6]: > 300 µM (not active)
- EC50 [7]: > 300 µM (not active)
